Assay results: article PMC7763892, “Anti-Inflammatory Effect of Homo- and Heterodimers of Natural Enkephalinase Inhibitors in Experimental Colitis in Mice” (Molecules, 2020)
Where a SMILES comes first, the peptide text is derived from it.

Tests used:
TNBS-induced colitis = conditions: mouse model; cited from earlier work
[1] = Solubility in Tris-HCl buffer; type: physicochemical; conditions: Tris-HCl buffer + 3% DMSO
Description: The designed dimers (peptides IX–XI) were sparingly soluble in Tris-HCl buffer. To improve their solubility in Tris-HCl buffer, 3% DMSO was added to the samples. […] In the time of analysis of spinorphin (III) and peptide IV, products with the same retention time as the analyzed substrate, were created, which made determining the inhibitory activity of the investigated peptides against NEP impossible.

[2] = cited from earlier work
[3] = Stability in human plasma; type: in vitro ADME; conditions: RP-HPLC
Description: Plasma-stability assays were performed, as described previously. The sample preparation and the analysis of peptide I were both performed in the same way as in our previous work. Peptides III and X were analyzed by RP-HPLC using a linear gradient of 20–80% B over 20 min with the same solvent system of 0.1% TFA in water (A) and 0.1% TFA in acetonitrile (B), with a flow rate of 1.5 mL/min. All measurements were performed in triplicate.

[4] = target: neutral endopeptidase (NEP) (Homo sapiens, UniProt P08473); conditions: Tris-HCl buffer 50 mM, pH 7.4, 37 °C, RP-HPLC, mean ± SEM, ref Sobocińska et al. [24], cited from earlier work
[5] = cited from earlier work; remark: listed apart in the source
Description: In stability assays in human plasma, peptide X was included because this compound was selected for in vivo assays of the anti-inflammatory activity. […] After 2 h of incubation, the levels of peptide X were, respectively, 10.3 and ...

Sequence of neutral endopeptidase (NEP) (P08473 whole entry, species assumed): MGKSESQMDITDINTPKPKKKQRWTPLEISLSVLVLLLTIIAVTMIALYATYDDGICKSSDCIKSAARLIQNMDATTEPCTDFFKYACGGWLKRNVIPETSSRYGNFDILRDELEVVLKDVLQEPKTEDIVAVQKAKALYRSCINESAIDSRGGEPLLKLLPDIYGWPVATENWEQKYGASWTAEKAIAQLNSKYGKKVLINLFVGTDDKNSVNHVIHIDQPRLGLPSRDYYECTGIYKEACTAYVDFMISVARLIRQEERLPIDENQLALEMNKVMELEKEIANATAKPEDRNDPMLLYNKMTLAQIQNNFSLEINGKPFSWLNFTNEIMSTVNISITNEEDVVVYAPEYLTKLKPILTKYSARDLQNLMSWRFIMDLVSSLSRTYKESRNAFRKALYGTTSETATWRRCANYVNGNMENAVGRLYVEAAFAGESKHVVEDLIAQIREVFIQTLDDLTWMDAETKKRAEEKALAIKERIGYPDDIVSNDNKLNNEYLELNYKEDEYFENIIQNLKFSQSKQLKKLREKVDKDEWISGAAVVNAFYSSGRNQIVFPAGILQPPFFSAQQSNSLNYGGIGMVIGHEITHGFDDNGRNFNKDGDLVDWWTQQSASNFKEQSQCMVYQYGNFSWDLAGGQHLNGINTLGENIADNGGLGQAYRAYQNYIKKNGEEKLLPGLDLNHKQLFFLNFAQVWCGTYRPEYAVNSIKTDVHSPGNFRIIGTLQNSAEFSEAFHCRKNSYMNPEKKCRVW

For Pal-KKQRFSR, the “anti-inflammatory effect in TNBS-induced colitis” value (“anti-inflammatory effect” for short) (TNBS-induced colitis) is given as “lack of a anti-inflammatory effect”.
With CC(C)C[C@H](NC(=O)[C@@H](N)CSSC[C@H](N)C(=O)N[C@@H](CC(C)C)C(=O)N[C@H](C(=O)N[C@H](C(=O)N[C@@H](Cc1ccc(O)cc1)C(=O)N1CCC[C@H]1C(=O)N[C@@H](Cc1c[nH]c2ccccc12)C(=O)N[C@H](C(=O)O)[C@@H](C)O)C(C)C)C(C)C)C(=O)N[C@H](C(=O)N[C@H](C(=O)N[C@@H](Cc1ccc(O)cc1)C(=O)N1CCC[C@H]1C(=O)N[C@@H](Cc1c[nH]c2ccccc12)C(=O)N[C@H](C(=O)O)[C@@H](C)O)C(C)C)C(C)C [IX, (Cys-Leu-Val-Val-Tyr-Pro-Trp-Thr)2] (HELM PEPTIDE1{C.L.V.V.Y.P.W.T}|PEPTIDE2{C.L.V.V.Y.P.W.T}$PEPTIDE1,PEPTIDE2,1:R3-1:R3$$$V2.0) the “solubility in Tris-HCl buffer with 3% DMSO” value [1] was “did not help to dissolve”.
In the case of Opiorphin (Gln-Arg-Phe-Ser-Arg) [II], the “anti-inflammatory effect” value (TNBS-induced colitis) is given as “lack of a anti-inflammatory effect”, the “amount that disappears in human plasma because of potential complex formation” value [2] is given as 12% and the “metabolic half-life in human plasma” value [2] is given as 5 min. The “disappearance in human plasma by cyclization of Gln1 to Glp” value ([2]; maximum) was ≤ 16%.
For CC(C)C[C@H](NC(=O)[C@@H](N)CSSC[C@H](N)C(=O)N[C@@H](CCC(N)=O)C(=O)N[C@@H](Cc1c[nH]cn1)C(=O)N[C@@H](CC(N)=O)C(=O)N1CCC[C@H]1C(=O)N[C@@H](CCCNC(=N)N)C(=O)O)C(=O)N[C@H](C(=O)N[C@H](C(=O)N[C@@H](Cc1ccc(O)cc1)C(=O)N1CCC[C@H]1C(=O)N[C@@H](Cc1c[nH]c2ccccc12)C(=O)N[C@H](C(=O)O)[C@@H](C)O)C(C)C)C(C)C [Peptide X, Cys-Gln-His-Asn-Pro-Arg │ Cys-Leu-Val-Val-Tyr-Pro-Trp-Thr] (HELM PEPTIDE1{C.L.V.V.Y.P.W.T}|PEPTIDE2{C.Q.H.N.P.R}$PEPTIDE1,PEPTIDE2,1:R3-1:R3$$$V2.0), the “level of peptide in human plasma after 2 h relative to spinorphin” value ([3]; 2 h incubation, times higher) was 4 times, the remaining at 4 h ([3]; 4 h incubation, triplicate, read-out: % of remaining peptide in human plasma after 4 h) was 42% and the remaining at 24 h ([3]; 24 h incubation, triplicate, read-out: % of remaining peptide in human plasma after 24 h) was 8%.
In the case of CC(C)C[C@H](N)C(=O)N[C@H](C(=O)N[C@H](C(=O)N[C@@H](Cc1ccc(O)cc1)C(=O)N1CCC[C@H]1C(=O)N[C@@H](Cc1c[nH]c2ccccc12)C(=O)N[C@H](C(=O)O)[C@@H](C)O)C(C)C)C(C)C [III, Spinorphin (Leu-Val-Val-Tyr-Pro-Trp-Thr)] (H-LVVYPWT-OH), the “% of remaining peptide in human plasma after 4 h” value ([3]; 4 h incubation, triplicate) is reported as “completely decomposed”.
For “Gln-His-Asn-Pro-Arg [Peptide I, Sialorphin (Gln-His-Asn-Pro-Arg)]”, the “1000 × k, degradation rate of Met-enkephalin incubated with NEP and peptide” value ([4]; without inhibitor 25.35 ± 1.05) is given as 8.84 ± 0.27 ** 1/min and the “t1/2, half-life of Met-enkephalin incubated with NEP and peptide” value ([4]; without inhibitor 27 ± 1) is given as 78 ± 2 min.
In the case of “Sialorphin (Gln-His-Asn-Pro-Arg) [Peptide I]”, the “anti-inflammatory effect” value (TNBS-induced colitis) is listed as “potent anti-inflammatory activity”, the “remaining peptide in human plasma after 4 h” value ([5]; 4 h incubation, RP-HPLC, ref Sobocinska et al. [21]) is listed as “completely decomposed” and the “stability in human plasma” value [5] is listed as “sensitive to degradation”.
